Measurements taken from ChEMBL document CHEMBL5154938, “A Small-Molecule Oral Agonist of the Human Glucagon-like Peptide-1 Receptor” (J Med Chem, 2022).
pEC50, pIC50, pKi: −log10 of the molar value. Blank lines part the entries; values can stand above or below the molecule they belong to. Calls of active or inactive are those of the source. The calls are words filed in the database; no cut-off is given here.

Key:
[1] = molecular target: T1, Glucagon-like peptide 1 receptor (Homo sapiens, UniProt P43220); assay: Agonist activity at human GLP-1R expressed in CHO-K1 cells assessed as cAMP accumulation by measuring maximum efficacy at 20 uM incubated for 30 mins in presence of BETP by BETP sensitized time-resolved fluorescence assay relative to control; assay type: functional, cell-based; conditions: filed as agonist
[2] = molecular target: T1, Glucagon-like peptide 1 receptor; assay: Agonist activity at human GLP-1R expressed in PathHunter CHO-K1 GLP1R beta-arrestin-2 cell assessed as induction of beta-arrestin 2 recruitment incubated for 90 mins in presence of BETP by PathHunter assay; assay type: functional, cell-based
[3] = molecular target: T1, Glucagon-like peptide 1 receptor; assay: Agonist activity at human GLP-1R expressed in PathHunter CHO-K1 GLP1R beta-arrestin-2 cells assessed as induction of beta-arrestin 2 recruitment by measuring maximum efficacy incubated for 90 mins in presence of BETP by PathHunter assay relative to control; assay type: functional, cell-based
[4] = Lipophilicity, logD of compound at pH 7.4 by shake-flash method; assay type: physicochemical; conditions: buffer
[5] = molecular target: Voltage-gated inwardly rectifying potassium channel KCNH2 (Homo sapiens, UniProt Q12809); assay: Inhibition of hERG ion channel by patch-clamp method; assay type: toxicity
[6] = molecular target: T1, Glucagon-like peptide 1 receptor
[7] = molecular target: T1, Glucagon-like peptide 1 receptor; remark: listed apart in the source
[8] = molecular target: T1, Glucagon-like peptide 1 receptor; remark: listed apart in the source
[9] = molecular target: T1, Glucagon-like peptide 1 receptor; remark: listed apart in the source
in vitro = conditions: human, hepatocytes
[10] = Cmax in Wistar Han rat at 100 mg/kg, po measured upto 24 hrs by LC-MS/MS analysis; assay type: ADME, organism-based; set-up: time < 24 hrs, dose 100 mg/kg, route po; conditions: in vivo
[11] = Metabolic stability in human liver microsomes assessed as intrinsic clearance in the presence of NADPH by HPLC-MS/MS analysis; assay type: ADME, Microsome
[12] = Activation of rabbit GLP-1R expressed in CHO cells assessed as increase in cAMP accumulation; assay type: cell-based; conditions: Oryctolagus cuniculus
[13] = Cmax in Wistar Han rat at 5 mg/kg, po measured upto 24 hrs by LC-MS/MS analysis; assay type: ADME, organism-based; set-up: dose 5 mg/kg, time < 24 hrs, route po; conditions: in vivo
CHO = assay: Activation of mouse GLP-1R S33W mutant expressed in CHO cells assessed as increase in cAMP accumulation; assay type: cell-based; conditions: filed as activator
[14] = Cmax in cynomologus monkey at 5 mg/kg, po measured upto 24 hrs by LC-MS/MS analysis; assay type: ADME, organism-based, Macaca fascicularis; set-up: time < 24 hrs, dose 5 mg/kg, route po; conditions: cynomolgus monkey, in vivo
[15] = Cmax in cynomologus monkey at 100 mg/kg, po measured upto 24 hrs by LC-MS/MS analysis; assay type: ADME, organism-based, Macaca fascicularis; set-up: time < 24 hrs, dose 100 mg/kg, route po; conditions: cynomolgus monkey, in vivo
[16] = AUC(0 to infinity) in cynomologus monkey at 1 mg/kg, iv measured upto 24 hrs by LC-MS/MS analysis; assay type: ADME, organism-based, Macaca fascicularis; set-up: dose 1 mg/kg, time < 24 hrs, route iv; conditions: cynomolgus monkey, in vivo
[17] = AUC(0 to infinity) in cynomologus monkey at 5 mg/kg, po measured upto 24 hrs by LC-MS/MS analysis; assay type: ADME, organism-based, Macaca fascicularis; set-up: time < 24 hrs, dose 5 mg/kg, route po; conditions: cynomolgus monkey, in vivo
[18] = AUC(0 to infinity) in cynomologus monkey at 100 mg/kg, po measured upto 24 hrs by LC-MS/MS analysis; assay type: ADME, organism-based, Macaca fascicularis; set-up: dose 100 mg/kg, time < 24 hrs, route po; conditions: cynomolgus monkey, in vivo
[19] = AUC (0 to infinity) in Wistar Han rat at 1 mg/kg, iv measured upto 24 hrs by LC-MS/MS analysis; assay type: ADME, organism-based; set-up: time < 24 hrs, dose 1 mg/kg, route iv; conditions: in vivo
[20] = AUC (0 to infinity) in Wistar Han rat at 5 mg/kg, po measured upto 24 hrs by LC-MS/MS analysis; assay type: ADME, organism-based; set-up: dose 5 mg/kg, time < 24 hrs, route po; conditions: in vivo
[21] = AUC (0 to infinity) in Wistar Han rat at 100 mg/kg, po measured upto 24 hrs by LC-MS/MS analysis; assay type: ADME, organism-based; set-up: dose 100 mg/kg, time < 24 hrs, route po; conditions: in vivo
[22] = Volume of distribution at steady state in Wistar Han rat at 1 mg/kg, iv measured upto 24 hrs by LC-MS/MS analysis; assay type: ADME, organism-based; conditions: in vivo
[23] = Volume of distribution at steady state in cynomologus monkey at 1 mg/kg, iv measured upto 24 hrs by LC-MS/MS analysis; assay type: ADME, organism-based, Macaca fascicularis; conditions: cynomolgus monkey, in vivo
[24] = Oral bioavailability in cynomologus monkey at 5 mg/kg measured upto 24 hrs by LC-MS/MS analysis; assay type: ADME, organism-based, Macaca fascicularis; conditions: cynomolgus monkey, in vivo
[25] = Oral bioavailability in cynomologus monkey at 100 mg/kg measured upto 24 hrs by LC-MS/MS analysis; assay type: ADME, organism-based, Macaca fascicularis; conditions: cynomolgus monkey, in vivo
[26] = Oral bioavailability in Wistar Han rat at 5 mg/kg measured upto 24 hrs by LC-MS/MS analysis; assay type: ADME, organism-based; conditions: in vivo
[27] = Oral bioavailability in Wistar Han rat at 100 mg/kg measured upto 24 hrs by LC-MS/MS analysis; assay type: ADME, organism-based; conditions: in vivo
Macaca fascicularis [28] = assay: Induction of insulin secretion in cynomologus monkey assessed as induction of glucose-induced insulin secretion at 1.8 mg, iv dosed once daily by IVGTT; assay type: functional, organism-based; conditions: DDE = dose-dependent effect
Macaca fascicularis [29] = assay: Induction of insulin secretion in cynomologus monkey assessed as glucose disappearance at 1.8 mg, iv dosed once daily by IVGTT assay; assay type: functional, organism-based
Cynomolgus monkey = assay: Reduction in food intake in cynomologus monkey at 2.9 mg/kg, po administered once daily for 2 days relative to control; assay type: functional, organism-based; conditions: Macaca fascicularis, time 2.0 day
[30] = molecular target: T1, Glucagon-like peptide 1 receptor; assay: Agonist activity at FAP-tagged human GLP-1R expressed in HEK293 cells assessed as receptor internalization measured after 30 mins by nuclear staining based confocal microscopic analysis; assay type: functional, cell-based; conditions: filed as agonist
[31] = Lipophilicity, logD of compound at pH 7.4 by RP-HPLC analysis; assay type: physicochemical; conditions: buffer
[32] = molecular target: T1, Glucagon-like peptide 1 receptor; remark: listed apart in the source
[33] = molecular target: T1, Glucagon-like peptide 1 receptor; remark: listed apart in the source
[34] = molecular target: T1, Glucagon-like peptide 1 receptor; assay: biochemical

T1 sequence (P43220 whole entry): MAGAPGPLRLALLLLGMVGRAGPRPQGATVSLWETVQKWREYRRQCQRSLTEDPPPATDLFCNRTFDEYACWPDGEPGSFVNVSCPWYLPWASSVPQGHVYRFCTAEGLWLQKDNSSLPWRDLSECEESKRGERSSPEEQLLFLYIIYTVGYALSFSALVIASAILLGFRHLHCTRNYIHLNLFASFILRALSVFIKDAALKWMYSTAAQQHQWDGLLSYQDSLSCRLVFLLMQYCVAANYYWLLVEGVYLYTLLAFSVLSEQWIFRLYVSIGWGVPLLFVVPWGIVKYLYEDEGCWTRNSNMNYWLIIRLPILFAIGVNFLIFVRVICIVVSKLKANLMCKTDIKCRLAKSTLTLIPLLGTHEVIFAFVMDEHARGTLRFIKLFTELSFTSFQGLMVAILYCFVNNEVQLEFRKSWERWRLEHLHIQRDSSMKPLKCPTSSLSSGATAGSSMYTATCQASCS
Chain of Voltage-gated inwardly rectifying potassium channel KCNH2 (Q12809 whole entry): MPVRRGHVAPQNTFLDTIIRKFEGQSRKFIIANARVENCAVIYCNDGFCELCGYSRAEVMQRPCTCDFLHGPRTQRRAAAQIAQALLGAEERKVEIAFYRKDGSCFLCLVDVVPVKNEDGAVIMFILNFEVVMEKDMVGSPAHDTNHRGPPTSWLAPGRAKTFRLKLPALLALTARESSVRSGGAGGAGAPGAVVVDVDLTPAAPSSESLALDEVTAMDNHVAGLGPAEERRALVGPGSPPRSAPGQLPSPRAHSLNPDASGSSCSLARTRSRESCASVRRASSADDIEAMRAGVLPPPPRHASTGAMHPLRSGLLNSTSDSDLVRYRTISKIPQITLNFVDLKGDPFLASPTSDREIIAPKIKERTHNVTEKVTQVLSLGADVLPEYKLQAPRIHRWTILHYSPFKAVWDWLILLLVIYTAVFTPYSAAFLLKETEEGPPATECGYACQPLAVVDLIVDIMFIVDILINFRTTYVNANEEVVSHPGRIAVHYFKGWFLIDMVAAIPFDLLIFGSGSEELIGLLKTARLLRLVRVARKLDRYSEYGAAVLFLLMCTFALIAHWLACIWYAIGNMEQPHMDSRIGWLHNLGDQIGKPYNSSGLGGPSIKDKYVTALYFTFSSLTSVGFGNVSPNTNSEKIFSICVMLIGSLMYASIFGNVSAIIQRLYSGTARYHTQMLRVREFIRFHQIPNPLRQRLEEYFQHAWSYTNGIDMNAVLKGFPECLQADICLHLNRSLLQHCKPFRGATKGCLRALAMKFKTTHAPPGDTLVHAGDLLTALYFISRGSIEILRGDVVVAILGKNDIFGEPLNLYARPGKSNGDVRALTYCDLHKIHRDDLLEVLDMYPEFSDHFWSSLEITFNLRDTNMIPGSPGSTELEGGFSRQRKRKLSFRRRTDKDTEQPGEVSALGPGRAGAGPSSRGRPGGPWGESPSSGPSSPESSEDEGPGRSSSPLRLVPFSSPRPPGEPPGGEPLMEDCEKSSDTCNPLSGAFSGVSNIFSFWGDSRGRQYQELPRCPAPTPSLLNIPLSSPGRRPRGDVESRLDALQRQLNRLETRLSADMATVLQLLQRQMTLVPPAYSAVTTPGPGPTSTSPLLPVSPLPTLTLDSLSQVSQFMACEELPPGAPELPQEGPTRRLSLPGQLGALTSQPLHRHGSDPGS

- pEC50 [2]: 5.82
- Emax [3]: 23%
- logD [4]: 2.3
- pEC50 [6]: 7.36
- pEC50 [7]: 5.34
- pEC50 [8]: < 4.70
- pEC50 [9]: < 4.52
- hepatocyte CLint (in vitro): 37 µL/min/1e6 cells
SMILES: Cn1c(CN2CCC(c3cccc(OCc4ccc(Cl)cc4F)n3)CC2)nc2nccc(NCC(=O)O)c21
- Emax [1]: 90%
- pIC50 [5]: < 5.00

- pEC50 [2]: 5.55
- Emax ([3]; filed as agonist): 99%
- logD [4]: 2
- pEC50 [6]: 8.17
- pEC50 [7]: 7.02
- pEC50 [8]: 5.68
- pEC50 [9]: < 4.52
- hepatocyte CLint (in vitro): 31 µL/min/1e6 cells
SMILES: Cn1c(CN2CCC(c3cccc(OCc4ccc(Cl)cc4F)n3)CC2)nc2ccc(C(=O)O)nc21
- Emax [1]: 84%
- pIC50 [5]: < 4.00

SMILES: N#Cc1ccc(COc2cccc(C3CCN(Cc4nc5ccc(C(=O)O)cc5n4C[C@@H]4CCO4)CC3)n2)c(F)c1 [DANUGLIPRON]
- Cmax [10]: 2820 ng/mL
- Emax [1]: 110%
- logD [4]: 1.8
- CLH [11]: < 10 µL/min
- pIC50 [5]: 5.37
- pEC50 [12]: < 4.70
- Cmax [13]: 141 ng/mL
- Activity (CHO): Active
- Cmax [14]: 68.7 ng/mL
- Cmax [15]: 1150 ng/mL
- AUC [16]: 1240 ng·h/mL
- AUC [17]: 303 ng·h/mL
- AUC [18]: 11000 ng·h/mL
- AUC [19]: 296 ng·h/mL
- AUC [20]: 168 ng·h/mL
- AUC [21]: 11900 ng·h/mL
- Vdss [22]: 0.86 L/kg
- Vdss [23]: 0.266 L/kg
- bioavailability [24]: 5%
- bioavailability [25]: 9%
- bioavailability [26]: 11%
- bioavailability [27]: 39%
- Activity (Macaca fascicularis [28]): Dde
- Activity (Macaca fascicularis [29]): Active
- Activity (Cynomolgus monkey): Active
- Activity [30]: Active
- hepatocyte CLint (in vitro): 6.9 µL/min/1e6 cells

- pEC50 [2]: 5.02
- Emax ([3]; filed as agonist): 100%
- logD [31]: 5.7
- pEC50 [6]: 7.11
- pEC50 [7]: 5.59
- pEC50 [8]: < 4.70
- pEC50 [9]: < 4.52
- hepatocyte CLint (in vitro): 55 µL/min/1e6 cells
SMILES: Cn1c(CN2CCC(c3cccc(OCc4ccc(Cl)cc4F)n3)CC2)nc2ccncc21
- Emax [1]: 86%
- pIC50 [5]: 5.25

SMILES: Cn1c(CN2CCC(c3nc(OCc4ccc(Cl)cc4F)ncc3F)CC2)nc2ccccc21
- logD [31]: 5.6
- pIC50 [5]: 5.27
- pEC50 [6]: < 5.00
- pEC50 [7]: < 4.70
- pEC50 [8]: < 4.70
- hepatocyte CLint (in vitro): 48 µL/min/1e6 cells

- pEC50 [7]: 9.12
- pEC50 [8]: 8.07
- pEC50 [32]: 6.60
- pEC50 [33]: 6.21
- pKi [34]: 7.29
SMILES: CCn1cncc1Cn1c(CN2CCC(c3cccc(OCc4ccc(F)cc4F)n3)CC2)nc2ccc(C(=O)O)cc21
